This passage reports melting point results from a melting point compilation (Tetko et al.; mined from patent text by program, amines drawn as free bases though some values may be those of a salt).

The structures appear in SMILES notation.

One may read the melting point as the temperature of the solid-liquid transition. With `C=C(c1ccccc1)C(c1ccc(F)cc1)C(O)n1ncnc1S` (stereo unspecified), the melting point was 54 to 58 °C.
The same measure for `CC(O)c1ccc2cc(S(N)(=O)=O)sc2c1` (stereo unspecified): 134 to 135 °C; for `O=C(Nc1cccc(OCc2cccnc2)c1)N1CCOCC1`: 58 to 62 °C; for `COc1ccc2c(c1)c1c(n2CCC(=O)NN)CCN(C)C1`: 126 to 128 °C.
With `NNC1=NOCc2ccc(Cl)cc21` the figure was 148 to 149 °C; with `COC(=O)C(Cc1ccc(OCc2ccccc2)cc1)NC(=O)c1cc2ccc(-c3ccc(Cl)cc3)cc2s1` (stereo unspecified), 200 to 201 °C; with `C[C@@H]1CN(c2ccc(S(=O)(=O)c3ccccc3)c3ccccc23)C[C@H](C)N1`, 168 to 169 °C.
With `N=C(N)Nc1cc(Cl)ccc1N1CCOCC1` the figure was 135 to 138 °C; with `Cc1nc(NC(=O)c2cnccn2)c(Br)c(C)c1Br`, 166 °C.
On to `CC1(C)CN2C(=O)c3ccccc3C(O)(c3ccccc3)C2=N1` (stereo unspecified), for which the melting point lay within 186 to 188 °C.
With `CC(C#Cc1cccc(Oc2nccs2)c1)N(O)C(N)=O` (stereo unspecified) the figure was 118 to 119 °C.
With `C[C@@H]1Cc2c(N3CCN(C)CC3)c(F)cc3c(=O)c(C(=O)O)cn1c23` the figure was 249 to 252 °C.
In turn, `CC(C)(CO)Nc1nc(-c2ccc(C#N)c(F)c2)cs1` displayed a melting point of 128 to 130 °C.
With `OCc1nccc2c1CCCC2` the figure was 81 to 82 °C; with `CC1=C2CCC3C(CCC4(C)C3CCC4(C)O)C2(C)CC(=CO)C1=O` (stereo unspecified), 182 to 188 °C.
With `CNC(=O)c1ccccc1Nc1nc(Nc2ccc3c(c2)CCN(C[C@@H](O)C(F)(F)F)CC3)ncc1Cl` the figure was 188 to 191 °C.
`CCN(CC)c1cccc2nc3n(c12)CC(N)CCN3c1ccc(Cl)cc1Cl` (stereo unspecified) yielded a melting point of 149 to 151 °C.
With `Nc1nc(NC2CC2)c2ncn([C@@H]3C[C@H](CO)[C@@H](O)C3)c2n1` the figure was 174 to 176 °C; with `CCOC(=O)c1cc2c3n(ccc-2n1)CC(c1ccccc1)=N3`, 255 to 257 °C; with `CC(=O)C(O)C1OC(Sc2ncc(Cl)cn2)C(O)(C(C)=O)C(O)(C(C)=O)C1(O)C(C)=O` (stereo unspecified), 172 °C.
As for `Cc1noc(NS(=O)(=O)c2ccc(-c3ccc4c(c3)OCO4)cc2)c1Br`, the melting point was in the range of 172 to 174 °C.
With `CCCCCC(CC(=O)Nc1cc(C(N)=O)ccc1C(C)(C)C)c1cc(C(N)=O)c(OC)cc1OC` (stereo unspecified) the figure was 160 to 163 °C; with `CC(C)(C)OC(=O)C[C@H](NC(=O)c1ccc(CCC(=O)NC2=NCCCN2)s1)c1ccc2c(c1)OCO2`, 130 °C; with `Cc1cccc(NC(=O)NCC(=O)N(CC(=O)OC2CCCCC2)c2ccccc2)c1`, 176 °C.
With `CCCCCCCCOc1ccc(C(=O)Nc2cccc(Cl)c2Cl)cc1` the figure was 104 to 106 °C; with `C=CCN(CC=C)C(=O)n1cnc(S(=O)CC)n1` (stereo unspecified), 41 to 43 °C.
The same measure for `Cc1ccc(NC(=O)N2C(=S)C3(CCCCC3)NC23CCCCC3)cc1`: 127 to 129 °C; for `N#Cc1ccc(CCC(N)=O)cc1`: 220 °C.
Molecule `CC(C)(C)c1cc(-c2nn(CC(=O)O)c3ncccc23)cc(C(C)(C)C)c1O` had a melting point of 210 to 212 °C.
With `CN1CCN(c2ccc3cc(Cl)ccc3n2)CC1` the figure was 141 to 142 °C; with `COc1ccc(Cn2c(=O)c3c(c4ccccc42)OC(C)(C)[C@@H](Br)[C@@H]3O)cc1` (relative stereo), 146 to 147 °C.
The same measure for `O=C(c1ccccc1)c1cnc2c(cnn2Cc2ccco2)c1O`: 102 °C; for `Cc1cc(Cl)c([N+](=O)[O-])c(Cl)n1`: 69 to 70 °C.
With `Cc1c(F)c(N2CCC(n3cncn3)C2)c(F)c2c1c(=O)c(C(=O)O)cn2C1CC1` (stereo unspecified) the figure was 207 to 210 °C.
Molecule `COC(=O)c1ccc(Cl)cc1NC(=O)CSc1ccccc1C` returned a melting point of 88 to 89 °C.
The molecule `CCCC(C)(c1ccc(Oc2ccc([N+](=O)[O-])cc2)cc1)c1ccc(Oc2ccc([N+](=O)[O-])cc2)cc1` returned a melting point of 151 to 152 °C.
With `COc1cc(CNC(=S)NC(COC(=O)C(C)(C)C)Cc2ccc(C(C)(C)C)cc2)ccc1OCCN` (stereo unspecified) the figure was 63 to 65 °C; with `O=C(c1ccccc1)C(c1cccc2ccccc12)P(=O)(O)O` (stereo unspecified), 184 to 187 °C; with `CCOC(=O)c1cn(CC)c2nc(C)ccc2c1=O`, 122 to 123 °C.
With `NNc1ncccc1Br` the figure was 146 to 148 °C; with `O=c1oc(-c2ccc([N+](=O)[O-])cc2)nn1-c1ccc(C(F)(F)F)cc1`, 160 to 163 °C; with `Cc1c(Cl)cc(C(=O)CC(Cl)C(=O)O)cc1Cl` (stereo unspecified), 129 to 132 °C.
With `CN(C)C(=O)c1nc(-c2ccccc2)nc2c1c1ccccc1n2C` the figure was 193 to 195 °C.
As to `COc1ccc(CCNc2nc(Cl)ccc2N)cc1OC`, the melting point lay within 90 to 91 °C.
With `c1ccc2c(c1)CSc1nncn1-2` the figure was 188 to 190 °C; with `Cn1nc(O[C@@H]2c3cc(C#N)ccc3OC(CF)(CF)[C@H]2O)ccc1=O` (relative stereo), 215 to 217 °C; with `O=C(Nc1ccc(C(=O)N2Cc3ccccc3Cc3ccccc32)cc1)c1cc(Cl)ccc1Cl`, 203 to 231 °C.
The same measure for `CCCc1nc2c(N)nc3cc(OCCCO)ccc3c2s1`: 157 to 160 °C; for `CCCC(=O)Nc1ccc(N2CCC(NC[C@H](O)COc3cccc4[nH]c5ccccc5c34)CC2)cc1`: 194 to 199 °C; for `O=C(N=c1sc2cc(OC(F)(F)F)ccc2n1CCN1CCN(c2ccccn2)CC1)C(F)(F)F`: 132 °C.
With `CC(=O)N1CCC(OCCOc2ccc(C(N)=O)cc2)CC1` the figure was 154 to 155 °C; with `CCn1c(C)c(C2(c3ccc(OC)cc3OC)OC(=O)c3cc(N(C)C)ccc32)c2ccccc21` (stereo unspecified), 215 to 217 °C; with `COc1ccc2nc(COc3cccc(C(=O)Nc4cc(CCCS(=O)(=O)c5ccc(Cl)cc5)ccc4OCC(=O)O)c3)sc2c1`, 187 to 189 °C.
The molecule `CC1(C=C(F)F)CN(C(=O)Nc2ccc(OC(F)(F)F)cc2)N=C1c1ccc(Cl)cc1` (stereo unspecified) showed a melting point of 142 to 148 °C.
With `COc1ccc(-c2c(C=O)cc(OC)c(OC)c2OC)c(C=O)c1OS(C)(=O)=O` the figure was 130 to 131 °C; with `CCOCC(=O)Nc1nc(-c2ccco2)c(C(=O)C2CCOCC2)s1`, 121 to 126 °C; with `COc1cc2c(c3c1OC(C)(C)C3)C(c1cccc(N)c1)=NC(C)(C)C2`, 131 to 134 °C.
`COc1cccc2c1C(=O)c1c(cc3c(c1O)CCC(C(C)=O)C3)C2=O` (stereo unspecified): the melting point was in the range of 222 to 225 °C.
The same measure for `O=C(O)c1ccccc1Nc1ccc(Cl)cc1[N+](=O)[O-]`: 235 to 247 °C.
The same measure for `CC(=O)C=Cc1ccccc1O`: 136 to 137 °C.
With `CCOC(=O)c1cnc2scnn2c1=O`, the melting point fell in the range of 228 to 230 °C.
The same measure for `C=CCOC(=O)c1cccc(NC(=O)NC(CC(=O)OC(C)(C)C)C(=O)Nc2ccccc2C(=O)c2ccc(OC)cc2)c1` (stereo unspecified): 190 to 191 °C; for `COc1cc(NC2CCCCC2)c2ccccc2c1OC(C)=O`: 134 to 136 °C; for `COc1cc(Nc2nccc(-c3ccc(N4CCNCC4)nc3)n2)cc(OC)c1`: 176 to 177 °C.
The same measure for `Cc1c(C)c(N2CCN(Cc3ccccc3)CC2)c(C)c2c1OC(C)(C)C2c1ccc(F)nc1` (stereo unspecified): 76 to 79 °C; for `Cc1ccc2c(c1)OC1(O)c3ccccc3C(=O)C21O` (stereo unspecified): 145 to 147 °C; for `CC(C)(C)OC(=O)[C@@H]1CCCN1CC(=O)[C@H](Cc1ccccc1)NC(=O)OCc1ccccc1`: 98 to 99 °C.
The same measure for `COC(=O)CC1CCc2cc(OC)ccc2C1=O` (stereo unspecified): 110 to 112 °C.
`CCOC(=O)c1ncc2[nH]c3ccc(C4CC=CCC4)cc3c2c1C` (stereo unspecified) displayed a melting point of 200 to 201 °C.
`C=Cc1ccc(C(=O)Oc2ccc(S(=O)(=O)Nc3ccccc3)cc2)cc1` returned a melting point of 59 to 60 °C.
With `O=C1c2ccccc2C(=O)N1CCCS(=O)(=O)c1ccccc1` the figure was 126 to 127 °C; with `O=C1CCC(c2ccccc2)(c2ccccc2)[C@@H]2CN(C(=O)Cc3ccccc3C(F)(F)F)C[C@H]12` (racemic), 207 °C.
With `CNC(=O)c1ccccc1Nc1nc(Nc2ccc3c(c2)CCCC(=O)N3)ncc1Cl` the figure was 283 °C; with `Cc1nc(NCC(C)C)sc1C(=O)c1ccc(Cl)c([N+](=O)[O-])c1`, 138 to 142 °C; with `CC1CC2C3CCC4=CC(=O)C=CC4(C)C3=CCC2(C)C1C(=O)CN1CCN(c2cc(N3CCC4(CC3)OCCO4)nc(N3CCC4(CC3)OCCO4)n2)CC1` (stereo unspecified), 156 to 174 °C.
Molecule `O=C1NCC(CCc2ccccc2)O1` (stereo unspecified) registered a melting point of 82 to 83 °C.
With `CCOC(=O)Cn1cc(Cc2nc3c(F)c(F)cc(F)c3s2)c2ccccc21` the figure was 110 to 111 °C; with `Ic1ncnc2c1ncn2Cc1ccccc1`, 152 to 153 °C; with `CSc1ccc(C(=N)Nc2ccc(C)cc2)cc1`, 143 to 145 °C.
With `O=C1c2ccccc2C(=O)N1c1ccccc1CSc1nccn1-c1ccncc1` the figure was 145 to 147 °C; with `O=C1Cc2cccc(Oc3c(Cl)cccc3Cl)c2N1`, > 230 °C.
The molecule `OCCNc1cc(Nc2ccc(N3CCOCC3)cc2)ncn1` showed a melting point of 204 to 207 °C.
With `O=C(OC(=O)c1ccccc1S(=O)(=O)O)c1ccccc1S(=O)(=O)O` the figure was 126 to 129 °C.
The same measure for `O=C1CCC(N2C(=O)c3ccc(CNC(=O)NC4CCCCC4)cc3C2=O)C(=O)N1` (stereo unspecified): 208 to 210 °C; for `CCc1nc2c(N)nc(C)c(C)c2n1CCOCCNC(=O)N1CCOCC1`: 182 to 184 °C.
`CCOCc1nc2c(N)nc3cc(OCc4csc(-c5cccs5)n4)ccc3c2n1CC(C)(C)O`: the melting point lay in the range of 192 to 194 °C.
